Source: US10793580B2, “Substituted pyrazoloazepin-8-ones and their use as phosphodiesterase inhibitors” (LEO Pharma A/S, priority 2016, dated 2020)
Read-outs that look alike come from different tables or passages of the source.

Biological target: human PDE4D catalytic domain (Homo sapiens (Human), UniProt Q08499)
Experiment: PDE4 Assay (TR-FRET, FAM-cAMP cleavage)
Type: biochemical
Conditions: read-out: PDE4 IC50 range
How it was run: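 Readout is Tb-to-FAM time-resolved FRET after nanoparticle capture of AMP, the product of cleaving a cAMP/FAM-cAMP mixture by PDE4D catalytic domain (S380-L740) in the presence of titrated compound. Values are IC50 ranges in nM: concentration halving substrate cleavage relative to controls.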

[1] = human PDE4D catalytic domain (UniProt Q08499 [S380-L740]), 50% inhibition of substrate cleavage

Chain of human PDE4D catalytic domain (Q08499 380-740): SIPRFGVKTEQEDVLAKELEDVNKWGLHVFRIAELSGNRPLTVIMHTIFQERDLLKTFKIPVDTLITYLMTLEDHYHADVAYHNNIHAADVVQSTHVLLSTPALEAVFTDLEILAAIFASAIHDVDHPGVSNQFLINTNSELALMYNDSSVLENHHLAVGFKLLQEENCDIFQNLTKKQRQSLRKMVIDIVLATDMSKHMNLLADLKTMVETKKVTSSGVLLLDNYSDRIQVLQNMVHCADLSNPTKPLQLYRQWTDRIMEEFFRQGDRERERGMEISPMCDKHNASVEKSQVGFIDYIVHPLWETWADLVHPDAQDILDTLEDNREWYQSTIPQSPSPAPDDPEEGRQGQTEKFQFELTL

CCn1nc(CCCOC(=O)c2cccc(C(C)=O)c2)c2c1C(=O)NCC1(CCOCC1)C2 [Example 28, 3-(1-ethyl-8-oxo-spiro[6,7-dihydro-4H-pyrazolo[3,4-c]azepine-5,4′-tetrahydropyran]-3-yl)propyl 3-acetylbenzoate]
IC50 [1]: < 100 nM

CCn1nc(C[C@@H](C)COC(=O)c2ccc(C(=O)N3CCCC3)cc2)c2c1C(=O)NCC1(CCOCC1)C2 [Example 172, [(2R)-3-(1-ethyl-8-oxo-spiro[6,7-dihydro-4H-pyrazolo[3,4-c]azepine-5,4′-tetrahydropyran]-3-yl)-2-methyl-propyl] 4-(pyrrolidine-1-carbonyl)benzoate]
IC50 [1]: < 100 nM

CCn1nc(CCCOC(=O)c2cnn(C)c2)c2c1C(=O)NCC1(CCOCC1)C2 [Example 238, 3-(1-ethyl-8-oxo-spiro[6,7-dihydro-4H-pyrazolo[3,4-c]azepine-5,4′-tetrahydropyran]-3-yl)propyl 1-methylpyrazole-4-carboxylate]
IC50 [1]: < 100 nM

CCn1nc(CC(C)(C)COC(=O)CCS(C)(=O)=O)c2c1C(=O)NCC1(CCOCC1)C2 [Example 199, [3-(1-ethyl-8-oxo-spiro[6,7-dihydro-4H-pyrazolo[3,4-c]azepine-5,4′-tetrahydropyran]-3-yl)-2,2-dimethyl-propyl] 3-methylsulfonylpropanoate]
IC50 [1]: < 100 nM

CCn1nc(CCCOC(=O)c2ccc(F)cc2C)c2c1C(=O)NCC1(CCOCC1)C2 [Example 19, 3-(1-ethyl-8-oxo-spiro[6,7-dihydro-4H-pyrazolo[3,4-c]azepine-5,4′-tetrahydropyran]-3-yl)propyl 4-fluoro-2-methyl-benzoate]
IC50 [1]: < 100 nM

CCC(CC)C(=O)OCCCc1nn(CC)c2c1CC1(CCOCC1)CNC2=O [Example 6, 3-(1-ethyl-8-oxo-spiro[6,7-dihydro-4H-pyrazolo[3,4-c]azepine-5,4′-tetrahydropyran]-3-yl)propyl 2-ethylbutanoate]
IC50 [1]: < 100 nM

CCn1nc(CC(C)(C)COC(=O)c2ccc(S(=O)(=O)N3CCN(C(C)=O)CC3)cc2)c2c1C(=O)NCC1(CCOCC1)C2 [Example 216, [3-(1-ethyl-8-oxo-spiro[6,7-dihydro-4H-pyrazolo[3,4-c]azepine-5,4′-tetrahydropyran]-3-yl)-2,2-dimethyl-propyl] 4-(4-acetylpiperazin-1-yl)sulfonylbenzoate]
IC50 [1]: < 100 nM

CCn1nc(C[C@@H](C)COC(=O)c2cccc(C(=O)NC)c2)c2c1C(=O)NCC1(CCOCC1)C2 [Example 179, [(2R)-3-(1-ethyl-8-oxo-spiro[6,7-dihydro-4H-pyrazolo[3,4-c]azepine-5,4′-tetrahydropyran]-3-yl)-2-methyl-propyl] 3-(methylcarbamoyl)benzoate]
IC50 [1]: < 100 nM

CCn1nc(CCCOC(=O)c2ccc(C(F)(F)F)c(OC)c2)c2c1C(=O)NCC1(CCOCC1)C2 [Example 83, 3-(1-ethyl-8-oxo-spiro[6,7-dihydro-4H-pyrazolo[3,4-c]azepine-5,4′-tetrahydro-pyran]-3-yl)propyl 3-methoxy-4-(trifluoromethyl)benzoate]
IC50 [1]: < 100 nM

CCn1nc(CCCCOC(=O)c2cnsc2)c2c1C(=O)NCC1(CCOCC1)C2 [Example 268, 4-(1-ethyl-8-oxo-spiro[6,7-dihydro-4H-pyrazolo[3,4-c]azepine-5,4′-tetrahydropyran]-3-yl)butyl isothiazole-4-carboxylate]
IC50 [1]: < 100 nM

CCn1nc(C[C@@H](C)COC(=O)c2cnc(C)o2)c2c1C(=O)NCC1(CCOCC1)C2 [Example 282, [(2R)-3-(1-ethyl-8-oxo-spiro[6,7-dihydro-4H-pyrazolo[3,4-c]azepine-5,4′-tetrahydropyran]-3-yl)-2-methyl-propyl] 2-methyloxazole-5-carboxylate]
IC50 (Table 16, Examples 277-296): < 100 nM

CCn1nc(CC(C)(C)COC(=O)c2cscn2)c2c1C(=O)NCC1(CCOCC1)C2 [Example 305, [3-(1-ethyl-8-oxo-spiro[6,7-dihydro-4H-pyrazolo[3,4-c]azepine-5,4′-tetrahydro-pyran]-3-yl)-2,2-dimethyl-propyl] thiazole-4-carboxylate]
IC50 (Table 17, Examples 297-316): < 100 nM

CCn1nc(CC(C)(C)COC(=O)[C@H]2CC[C@H](O)CC2)c2c1C(=O)NCC1(CCOCC1)C2 [Example 194, [3-(1-ethyl-8-oxo-spiro[6,7-dihydro-4H-pyrazolo[3,4-c]azepine-5,4′-tetrahydropyran]-3-yl)-2,2-dimethyl-propyl] 4-hydroxycyclohexane-carboxylate]
IC50 [1]: < 100 nM

CCn1nc(CC(C)(C)COC(=O)c2coc(C)n2)c2c1C(=O)NCC1(CCOCC1)C2 [Example 301, [3-(1-ethyl-8-oxo-spiro[6,7-dihydro-4H-pyrazolo[3,4-c]azepine-5,4′-tetrahydropyran]-3-yl)-2,2-dimethyl-propyl] 2-methyloxazole-4-carboxylate]
IC50 (Table 17, Examples 297-316): < 100 nM

CCn1nc(CCCOC(=O)c2ccc(C)c(C)c2)c2c1C(=O)NCC1(CCOCC1)C2 [Example 13, 3-(1-ethyl-8-oxo-spiro[6,7-dihydro-4H-pyrazolo[3,4-c]azepine-5,4′-tetrahydropyran]-3-yl) propyl 3,4-dimethylbenzoate]
IC50 [1]: < 100 nM

CCn1nc(C[C@@H](C)COC(=O)c2cccc(C(N)=O)c2)c2c1C(=O)NCC1(CCOCC1)C2 [Example 178, [(2R)-3-(1-ethyl-8-oxo-spiro[6,7-dihydro-4H-pyrazolo[3,4-c]azepine-5,4′-tetrahydropyran]-3-yl)-2-methyl-propyl] 3-carbamoylbenzoate]
IC50 [1]: < 100 nM

CCn1nc(CCCOC(=O)c2cnsc2)c2c1C(=O)NCC1(CCOCC1)C2 [Example 243, 3-(1-ethyl-8-oxo-spiro[6,7-dihydro-4H-pyrazolo[3,4-c]azepine-5,4′-tetrahydropyran]-3-yl)propyl isothiazole-4-carboxylate]
IC50 [1]: < 100 nM

CCn1nc(CCCOC(=O)c2cccc(C(F)(F)F)c2C)c2c1C(=O)NCC1(CCOCC1)C2 [Example 68, 3-(1-ethyl-8-oxo-spiro[6,7-dihydro-4H-pyrazolo[3,4-c]azepine-5,4′-tetrahydro-pyran]-3-yl)propyl 2-methyl-3-(trifluoromethyl)benzoate]
IC50 [1]: < 100 nM

CCn1nc(CCCOC(=O)c2cncs2)c2c1C(=O)NCC1(CCOCC1)C2 [Example 245, 3-(1-ethyl-8-oxo-spiro[6,7-dihydro-4H-pyrazolo[3,4-c]azepine-5,4′-tetrahydropyran]-3-yl)propyl thiazole-5-carboxylate]
IC50 [1]: < 100 nM

CCn1nc(CC(C)(C)COC(=O)C2CCN(C(=O)OC)CC2)c2c1C(=O)NCC1(CCOCC1)C2 [Example 315, [3-(1-ethyl-8-oxo-spiro[6,7-dihydro-4H-pyrazolo[3,4-c]azepine-5,4′-tetrahydro-pyran]-3-yl)-2,2-dimethyl-propyl] 1-methoxycarbonyl-peridine-4-carboxylate]
IC50 (Table 17, Examples 297-316): < 100 nM

CCn1nc(CC(C)(C)COC(=O)c2cnn(C)c2)c2c1C(=O)NCC1(CCOCC1)C2 [Example 299, [3-(1-ethyl-8-oxo-spiro[6,7-dihydro-4H-pyrazolo[3,4-c]azepine-5,4′-tetrahydropyran]-3-yl)-2,2-dimethyl-propyl] 1-methylpyrazole-4-carboxylate]
IC50 (Table 17, Examples 297-316): < 100 nM

CCn1nc(CC(C)(C)COC(=O)c2cccc(C(=O)N3CCN(C)CC3)c2)c2c1C(=O)NCC1(CCOCC1)C2 [Example 233, [3-(1-ethyl-8-oxo-spiro[6,7-dihydro-4H-pyrazolo[3,4-c]azepine-5,4′-tetrahydro-pyran]-3-yl)-2,2-dimethyl-propyl] 3-(4-methyl-piperazine-1-carbonyl)-benzoate]
IC50 [1]: < 100 nM

CCn1nc(CCCOC(=O)c2cccc(C(=O)NC)c2)c2c1C(=O)NCC1(CCOCC1)C2 [Example 114, 3-(1-ethyl-8-oxo-spiro[6,7-dihydro-4H-pyrazolo[3,4-c]azepine-5,4′-tetrahydropyran]-3-yl)propyl 3-(methyl-carbamoyl)benzoate]
IC50 [1]: < 100 nM

CCn1nc(CCCOC(=O)C2CCCC2)c2c1C(=O)NCC1(CCOCC1)C2 [Example 5, 3-(1-ethyl-8-oxo-spiro[6,7-dihydro-4H-pyrazolo[3,4-c]azepine-5,4′-tetrahydropyran]-3-yl)propyl cyclopentanecarboxylate]
IC50 [1]: < 100 nM

CCn1nc(C[C@@H](C)COC(=O)c2cn(C)cn2)c2c1C(=O)NCC1(CCOCC1)C2 [Example 280, [(2R)-3-(1-ethyl-8-oxo-spiro[6,7-dihydro-4H-pyrazolo[3,4-c]azepine-5,4′-tetrahydropyran]-3-yl)-2-methyl-propyl] 1-methylimidazole-4-carboxylate]
IC50 (Table 16, Examples 277-296): < 100 nM

CCn1nc(C[C@@H](C)COC(=O)c2ccn(C)n2)c2c1C(=O)NCC1(CCOCC1)C2 [Example 278, [(2R)-3-(1-ethyl-8-oxo-spiro[6,7-dihydro-4H-pyrazolo[3,4-c]azepine-5,4′-tetrahydropyran]-3-yl)-2-methyl-propyl] 1-methylpyrazole-3-carboxylate]
IC50 (Table 16, Examples 277-296): < 100 nM

CCn1nc(C[C@@H](C)COC(=O)c2ccc(C(=O)N3CCOCC3)cc2)c2c1C(=O)NCC1(CCOCC1)C2 [Example 174, [(2R)-3-(1-ethyl-8-oxo-spiro[6,7-dihydro-4H-pyrazolo[3,4-c]azepine-5,4′-tetrahydropyran]-3-yl)-2-methyl-propyl] 4-(morpholine-4-carbonyl)benzoate]
IC50 [1]: < 100 nM

CCn1ccc(C(=O)OCCCc2nn(CC)c3c2CC2(CCOCC2)CNC3=O)n1 [Example 248, 3-(1-ethyl-8-oxo-spiro[6,7-dihydro-4H-pyrazolo[3,4-c]azepine-5,4′-tetrahydropyran]-3-yl)propyl 1-ethylpyrazole-3-carboxylate]
IC50 [1]: < 100 nM

CCn1nc(CCCCOC(=O)C2CCCC2)c2c1C(=O)NCC1(CCOCC1)C2 [Example 122, 4-(1-ethyl-8-oxo-spiro[6,7-dihydro-4H-pyrazolo[3,4-c]azepine-5,4′-tetrahydropyran]-3-yl)butyl cyclopentane-carboxylate]
IC50 [1]: < 100 nM
